Experimental data taken from patent US7943660B2, “Inhibitors of the LFA-1/ICAM-1 interaction and uses thereof” (Dominion Pharmakine S.L., priority 2005, dated 2011).

Structure (SMILES) | melting point [°C]
CC[C@H](C)C(OCc1ccccc1)[C@H]1[C@H]([N+](=O)[O-])[C@H](c2ccccc2)N[C@@H]1C(=O)NCCC(=O)O (stereo partly drawn) [Compound 1, 3-[(2S,3R,4S,5S)-3-[(2S)-1-(Benzyloxy)-2-methylbutyl]-4-nitro-5-phenylpyrrolidine-2-carboxamido]propanoic acid] | 140 to 141
CC[C@H](C)C(OCc1ccccc1F)[C@H]1[C@H]([N+](=O)[O-])[C@H](c2ccccc2)N[C@@H]1C(=O)NCCC(=O)O (stereo partly drawn) [Compound 3, 3-[(2S,3R,4S,5S)-3-[(2S)-1-(2-Fluorobenzyloxy)-2-methylbutyl]-4-nitro-5-phenylpyrrolidine-2-carboxamido]propanoic acid] | 136 to 138
CC[C@H](C)C(OCc1ccccc1F)[C@H]1[C@H]([N+](=O)[O-])[C@H](c2ccsc2)N[C@@H]1C(=O)NCCC(=O)O (stereo partly drawn) [Compound 4, 3-[(2S,3R,4S,5S)-3-[(2S)-1-(2-Fluorobenzyloxy)-2-methylbutyl]-4-nitro-5-(thiophen-3-yl)pyrrolidine-2-carboxamido]propanoic acid] | 113 to 114
CC[C@H](C)C(OCc1ccccc1)[C@H]1[C@H]([N+](=O)[O-])[C@H](c2ccsc2)N[C@@H]1C(=O)NCCC(=O)O (stereo partly drawn) [Compound 5, 3-[(2S,3R,4S,5S)-3-[(2S)-1-(Benzyloxy)-2-methylbutyl]-4-nitro-5-(thiophen-3-yl)pyrrolidine-2-carboxamido]propanoic acid] | 145 to 146
CC[C@H](C)C(OCc1ccccc1F)[C@H]1[C@H]([N+](=O)[O-])[C@@H](c2cccs2)N[C@@H]1C(=O)NCCC(=O)O (stereo partly drawn) [Compound 6, 3-[(2S,3R,4S,5S)-3-[(2S)-1-(2-Fluorobenzyloxy)-2-methylbutyl]-4-nitro-5-(thiophen-2-yl)pyrrolidine-2-carboxamido]propanoic acid] | 94 to 96
CC[C@H](C)C(OCc1ccccc1)[C@H]1[C@H]([N+](=O)[O-])[C@@H](c2cccs2)N[C@@H]1C(=O)NCCC(=O)O (stereo partly drawn) [Compound 7, 3-[(2S,3R,4S,5S)-3-[(2S)-1-(Benzyloxy)-2-methylbutyl]-4-nitro-5-(thiophen-2-yl)pyrrolidine-2-carboxamido]propanoic acid] | 79 to 80
CC(C)C(OCc1ccccc1)[C@H]1[C@H]([N+](=O)[O-])[C@H](c2cccnc2)N[C@@H]1C(=O)NCCC(=O)O (stereo partly drawn) [Compound 8, 3-[(2S,3R,4S,5S)-3-(1-(Benzyloxy)-2-methylpropyl)-4-nitro-5-(pyridin-3-yl)pyrrolidine-2-carboxamido]propanoic acid] | 98 to 100
CC(C)C(OCc1ccccc1)[C@H]1[C@H]([N+](=O)[O-])[C@@H](c2ccco2)N[C@@H]1C(=O)NCCC(=O)O (stereo partly drawn) [Compound 9, 3-[(2S,3R,4S,5S)-3-(1-(Benzyloxy)-2-methylpropyl)-5-(furan-2-yl)-4-nitropyrrolidine-2-carboxamido]propanoic acid] | 70 to 72
CC[C@H](C)C(OCc1ccccc1)[C@@H]1[C@H]([N+](=O)[O-])[C@H](c2ccccc2)N(C(=O)CN)[C@]1(C)C(=O)NCCC(=O)O (stereo partly drawn) [Compound 16, 3-[(2S,3R,4S,5S)-1-(2-Aminoacetyl)-3-[(2S)-1-(benzyloxy)-2-methylbutyl]-2-methyl-4-nitro-5-phenylpyrrolidine-2-carboxamido]propanoic acid] | 115.9 to 116.2
CC[C@H](C)C(OCc1ccccc1)[C@@H]1[C@H]([N+](=O)[O-])[C@H](c2ccccc2)N(C(=O)CN)[C@]1(C)C(=O)NCCCC(=O)O (stereo partly drawn) [Compound 17, 4-[(2S,3R,4S,5S)-1-(2-aminoacetyl)-3-[(2S)-1-(benzyloxy)-2-methylbutyl]-2-methyl-4-nitro-5-phenylpyrrolidine-2-carboxamido]butanoic acid] | 132.7 to 133.6
